# In patent publication US20170182077A1, “METHODS AND PHARMACEUTICAL COMPOSITIONS FOR THE TREATMENT OF ACUTE EXACERBATIONS OF CHRONIC OBSTRUCTIVE PULMONARY DISEASE” (INSERM (INSTITUT NATIONAL DE LA SANTÉ ET DE LA RECHERCHE …, priority 2014, published 2017):
# How the values were obtained:
# [1] = test system: lung cells (NKT cells) from Air and COPD mice; test: Cytokine production by total lung cells stimulated with alpha-GalactosylCeramide (ELISA); format: cell-based, C57B1/6 mice; conditions: αGC 100 ng/ml, 48 hrs; for production of IL-22: after Sp challenge vs non infected, ELISA of supernatants
# Protocol: FIG. 3—Lung cells from Air and COPD mice were treated with αGC (100 ng/ml) or not (Ctl, non stimulated) for 48 hrs. The concentrations of IL-22, IL-17, IFN-γ and IL-4 were analyzed by ELISA in the supernatants. Values represented the mean±SEM.
# C57B1/6 mice were exposed to CS generated from 5 cigarettes per day, 5 days a week, over a period of 12 weeks using a smoking machine (Emka, Scireq, Canada).
# Mice were inoculated with a clinical isolate of S. pneumoniae serotype 1 (Sp) (5×10^4 cfu). Bacteria stocks were kept frozen at −80° C. Bacteria were thawn just before infection, and the number of cfu was checked on chocolate plates. Infection was performed by intranasal route (50 μl/mouse).
# Cytokine production was analyzed in total lung cells. For this, 5×10^5 lung cells were seeded on 96-well plates and then stimulated with alpha-GalactosylCeramide, or α-GC (100 ng/ml), and coated anti-CD3 Ab. Forty-eight hours later, supernatants were collected and analyzed for IFN-γ, IL-4, IL-17 and IL-22 concentration by ELISA (R&D Systems).
# [2] = test system: peripheral blood mononuclear cells (PBMC); test: Th17 cytokine secretion by peripheral blood mononuclear cells exposed to S. pneumoniae or PHA; format: cell-based, human; conditions: PHA 1 μg/ml, supernatants after 24 h
# Protocol: Peripheral blood and induced or spontaneous sputum were collected in stable COPD patients (n=10), in smokers (without COPD, n=13)) and in non smoker healthy controls (n=14) (CPP 2008-A00690-55) in order to evaluate ex vivo the Th17 response to infection with S. pneumoniae. Peripheral blood mononuclear cells (PBMC) were purified on Ficoll Paque gradient and 3×10^6 cells/ml in complete RPMI1640 were exposed to S. pneumoniae (MOI=2) or to a positive control, phytohemagglutinin (1 μg/ml) (PHA, Difco). After 90 min, antibiotics were added to stop bacteria growth and supernatants were collected after 24 h incubation. In parallel, another batch of cells was incubated with brefeldin-A (10 μg/ml, Sigma) for 4 h before collection and was used for intracellular immuno-staining of cytokines in lymphocytes.
# [3] = pulmonary cells from Air and COPD mice, after Sp infection, ELISA
Compound,"IL-17 production ([1]; pulmonary cells from Air and COPD mice, after Sp challenge, ELISA)","levels of IFN-y [1, 3]","levels of IL-4 [1, 3]",production of IL-22 ([1]; pulmonary cells from Air mice),production of IL-22 ([1]; pulmonary cells from COPD mice),"response (secretion, mainly IL-17 and IL-22) ([2]; PBMC of COPD patients)",levels of IL-17 and IL-22 ([2]; PBMC of non-smokers and smokers)
CCCCCCCCCCCCCCCCCCCCCCCCCC(=O)N[C@@H](CO[C@H]1O[C@H](CO)[C@H](O)[C@H](O)[C@H]1O)[C@H](O)[C@H](O)CCCCCCCCCCCCCC [alpha-GalactosylCeramide],failed to increase IL-17 production,higher levels,higher levels,higher production of IL-22,absent,–,–
phytohemagglutinin [PHA],–,–,–,–,–,partially altered,significantly increased
